Consider three molecules from article PMC11191095, “QSAR Reveals Decreased Lipophilicity of Polar Residues Determines the Selectivity of Antimicrobial Peptide Activity” (ACS Omega, 2024).

Values joined by “and” are separate entries in the source; they are usually repeats but may differ in a detail not shown here. Equal values may be shown once. Where a SMILES comes first, the peptide text is derived from it. A value given as a limit tells only on which side of the number the result lay.

The test system of one series is HaCat cell line. The series is described as follows: In vitro HaCat cytotoxicity (MTT). Format: cell-based, human. To be noted: 21 h exposure, OD570, relative to untreated control. As to the method:
The HaCat cell line (Cellonex, South Africa) was cultured in Dulbecco’s Modified Eagle Medium (DMEM) supplemented with 10% heat-inactivated fetal calf serum (FCS) and 1% antibiotic-antimycotic (Abs) and maintained at 5–10% CO2, 37 °C, 95% humidity. For cytotoxicity screening, 5.56 × 10^4 cells/mL were plated in a 96-well plate. After 24 h incubation, the cells are initially exposed to each peptide at a concentration of 256 μg/mL or 0.1% Triton-X-100 as the control for 21 h. If cytotoxicity was observed, at a level of significance of p < 0.0001 compared with the untreated control after 21 h, a dose-response assay was undertaken. Cell viability was determined by adding 10% 3-(4,5-dimethyl-2-thiazolyl)-2,5-diphenyl-2H-tetrazolium bromide (MTT) (1 mg/mL), to each well and after a further 3 h incubation the media was discarded, and the formazan crystals dissolved by adding 25% DMSO in ethanol. The absorbance was measured at OD570 by using the FLUOstar Omega multidetection microplate reader (BMG Labtech). Percentage cell viability was calculated relative to the untreated control. The LC50 was defined as the concentration of AMP treatment that results in 50% lethality of HaCat cells and was determined from the dose-response curves.

A further series has as its system E. coli LEC001. Kind of series: microbe, parasite or virus in culture. It is filed as cell-based, Escherichia coli. Put shortly:
(§1)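 Peptides 128→2 μg/mL, 2-fold series; inoculum ~5 × 10^5 CFU/mL from overnight culture (OD600 0.01, mixed 1:1). MHB non-cation-adjusted for bacteria, RPMI 1640 + 2% glucose for fungi. 37 °C, 20 h, OD600. MIC50/MIC90 at 50%/90% inhibition; n ≥ 3.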

In the next series the test system is E. coli NCTC 12923. The series is described as follows: microbe, parasite or virus in culture. It is filed as cell-based, Escherichia coli. Put shortly: as §1
Another series concerns P. aeruginosa NCTC 13437. Kind of series: microbe, parasite or virus in culture. It is filed as cell-based, Pseudomonas aeruginosa. Summed up:
as §1

The subject of another series is A. baumannii ATCC 17978. The series is described as follows: microbe, parasite or virus in culture. It is filed as cell-based, Acinetobacter baumannii. Summed up:
as §1

The next series concerns A. baumannii AYE. The series is described as follows: microbe, parasite or virus in culture. Format: cell-based, Acinetobacter baumannii. Put shortly: as §1
The test system of a further series is K. pneumoniae M6. Kind of series: microbe, parasite or virus in culture. Format: cell-based, Klebsiella pneumoniae. Summed up:
as §1

In the next series the test system is K. pneumoniae NCTC 13368. The series is described as follows: microbe, parasite or virus in culture. Format: cell-based, Klebsiella pneumoniae. Summed up:
as §1

Series [1] has as its system S. aureus (MRSA) NCTC 13616. Kind of series: microbe, parasite or virus in culture. It is filed as cell-based, Staphylococcus aureus. Put shortly: as §1
For the next series, the system named is S. aureus (MRSA) USA300. The series is described as follows: microbe, parasite or virus in culture. It is filed as cell-based, Staphylococcus aureus. Put shortly: as §1
Series [2] has as its system S. aureus (MSSA) ATCC 9144. Kind of series: microbe, parasite or virus in culture. It is filed as cell-based, Staphylococcus aureus. Put shortly:
as §1

Another series concerns C. auris TDG 1912. The series is described as follows: microbe, parasite or virus in culture. It is filed as cell-based, Candida auris. Summed up:
as §1

For the next series, the system named is C. albicans NCPF 3281. The series is described as follows: microbe, parasite or virus in culture. Format: cell-based. Put shortly: as §1
The test system of a further series is C. glabrata NCPF 8018. The series is described as follows: microbe, parasite or virus in culture. It is filed as cell-based. Summed up:
as §1

The next series concerns C. krusei NCPF 3876. The series is described as follows: microbe, parasite or virus in culture. It is filed as cell-based. Put shortly: as §1
The subject of series [3] is C. parapsilosis NCPF 3209. The series is described as follows: microbe, parasite or virus in culture. Format: cell-based. Put shortly:
as §1

In a further series the test system is C. tropicalis NCPF 8760. Kind of series: microbe, parasite or virus in culture. Format: cell-based. Summed up: as §1
The next series has as its system P. aeruginosa PAO1. Kind of series: microbe, parasite or virus in culture. It is filed as cell-based, Pseudomonas aeruginosa. To be noted: P. aeruginosa PAO1 (S); shown in µM. Put shortly: as §1
Another series has as its system S. aureus (MRSA) 1199B. Kind of series: microbe, parasite or virus in culture. It is filed as cell-based, Staphylococcus aureus. To be noted: S. aureus (MRSA) 1199B (R); shown in µM. Summed up: as §1
The subject of the next series is human erythrocytes. The series is described as follows: In vitro hemolytic activity. Format: cell-based. To be noted: human erythrocytes in PBS, 1 h, 37 °C, OD550; from dose response curves. Here is the method: Potential erythrocyte hemolysis was tested by incubating serial dilutions of the AMPs in PBS with freshly collected erythrocytes at a ratio of 1:1 in 96-well polypropylene V-shape plates for 1 h at 37 °C. Control wells were treated with 0.1% Triton-X-100 to ensure complete lysis or PBS-only to represent no lysis. The erythrocytes were collected by centrifugation and the OD550 of the supernatant was measured using a plate reader. The percentage hemolysis was calculated as [drawing 1] 1 where Apeptide is the absorbance value of erythrocytes exposed to a known peptide concentration, Agrowth control is the absorbance of erythrocytes exposed to 0.1% Triton-X-100 and Ablank is the absorbance of erythrocytes exposed to the PBS. The concentrations at which a peptide caused 10% (HC10) and 50% (HC50) hemolysis was determined from the dose response curves.

Where [4] appears, read: C. albicans NCPF 3281, shown in µM.
Where [5] appears, read: C. glabrata NCPF 8018, shown in µM.
Where [6] appears, read: C. krusei NCPF 3876, shown in µM.
Where [7] appears, read: C. parapsilosis NCPF 3209, shown in µM.
The mark [8] stands for this setting: C. tropicalis NCPF 8760, shown in µM.

For `CC[C@H](C)[C@H](NC(=O)[C@H](C)NC(=O)[C@H](Cc1c[nH]cn1)NC(=O)[C@@H]1CCCN1C(=O)[C@@H](NC(=O)[C@H](CC(C)C)NC(=O)[C@H](CO)NC(=O)[C@H](Cc1ccccc1)NC(=O)[C@H](CC(C)C)NC(=O)[C@@H](N)Cc1ccccc1)[C@@H](C)CC)C(=O)NCC(=O)NCC(=O)N[C@@H](CC(C)C)C(=O)N[C@H](C(=O)N[C@@H](CO)C(=O)N[C@@H](C)C(=O)N[C@@H](Cc1ccccc1)C(=O)N[C@@H](CCCCN)C(=O)O)[C@@H](C)CC` [AamAP1], the “% HaCat cell death at initial screening (256μg/mL) ± SD” value in the series with HaCat cell line turned out to be 44.3 ±20.2%.

In the case of `CC[C@H](C)[C@H](NC(=O)[C@H](CCCCN)NC(=O)[C@H](CC(C)C)NC(=O)[C@H](C)NC(=O)[C@H](C)NC(=O)[C@H](CCCCN)NC(=O)[C@H](CC(C)C)NC(=O)[C@H](C)NC(=O)[C@H](CCCCN)NC(=O)CNC(=O)[C@H](CC(C)C)NC(=O)[C@H](Cc1ccccc1)NC(=O)[C@H](CO)NC(=O)CNC(=O)[C@H](Cc1ccccc1)NC(=O)CN)C(=O)NCC(=O)N[C@@H](C)C(=O)N[C@@H](CC(N)=O)C(=O)N[C@H](C(=O)N[C@@H](CC(C)C)C(=O)NCC(=O)NCC(=O)N[C@@H](C)C(=O)N1CCC[C@H]1C(=O)N[C@@H](CCC(N)=O)C(=O)N[C@@H](CCC(N)=O)C(=O)O)C(C)C` [CPF-P3] (H-GFGSFLGKALKAALKIGANVLGGAPQQ-OH), the “Modal MIC” value in the series on E. coli LEC001 (LEC001, 20 h) was 2.9 µM; in the series on E. coli NCTC 12923 (NCTC 12923, 20 h), 2.9 µM; with P. aeruginosa NCTC 13437 (NCTC 13437, 20 h) it was 23.5 µM; in the series on A. baumannii ATCC 17978 (ATCC 17978, 20 h), 1.5 µM; in the series with A. baumannii AYE (AYE, 20 h), 2.9 µM; in the series with K. pneumoniae M6 (M6, 20 h) it was 11.8 µM. Also, the “Modal MIC” value was found to be 11.8 µM with K. pneumoniae NCTC 13368 (NCTC 13368, 20 h); 1.5 µM in [1] (NCTC 13616, 20 h); 2.9 µM in the series on S. aureus (MRSA) USA300 (USA300, 20 h); 1.5 µM in series [2] (ATCC 9144, 20 h). Besides, the “Modal MIC50” value in the series with C. auris TDG 1912 (TDG 1912, 20 h) is given as > 47 µM; with C. albicans NCPF 3281 (NCPF 3281, 20 h), > 47 µM; with C. glabrata NCPF 8018 (NCPF 8018, 20 h), > 47 µM; with C. krusei NCPF 3876 (NCPF 3876, 20 h), 23.5 µM; in series [3] (NCPF 3209, 20 h) it was > 47 µM; in the series on C. tropicalis NCPF 8760 (NCPF 8760, 20 h), 2.9 µM. Further, the “Modal MIC90” value with C. auris TDG 1912 (TDG 1912, 20 h) is > 47 µM; in the series with C. albicans NCPF 3281 (NCPF 3281, 20 h), > 47 µM; in the series on C. glabrata NCPF 8018 (NCPF 8018, 20 h) it was > 47 µM; in the series on C. krusei NCPF 3876 (NCPF 3876, 20 h), 23.5 µM; in [3] (NCPF 3209, 20 h), > 47 µM; in the series with C. tropicalis NCPF 8760 (NCPF 8760, 20 h), 5.8 µM. In addition, the “% HaCat cell death at initial screening (256μg/mL) ± SD” value in the series on HaCat cell line is 39.9 ±12.3% and 39.9%.

Turning to `CC[C@H](C)[C@H](NC(=O)[C@H](Cc1c[nH]c2ccccc12)NC(=O)[C@H](CC(=O)O)NC(=O)[C@H](Cc1c[nH]c2ccccc12)NC(=O)[C@@H](NC(=O)[C@H](CCCCN)NC(=O)CN)C(C)C)C(=O)N[C@@H](CCCCN)C(=O)N[C@@H](CO)C(=O)N[C@H](C(=O)N[C@@H](C)C(=O)N[C@@H](CCCCN)C(=O)N[C@@H](CCCCN)C(=O)N[C@@H](CC(C)C)C(=O)N[C@@H](Cc1c[nH]c2ccccc12)C(=O)N[C@@H](CC(N)=O)C(N)=O)[C@@H](C)O` [Opis16a] (H-GKVWDWIKSTAKKLWN-NH2), the “Modal MIC” value is listed as 2 µM in the series on E. coli LEC001 (E. coli LEC001 (R), shown in µM); 2 µM with E. coli NCTC 12923 (E. coli NCTC 12923 (S), shown in µM); 16.2 µM with P. aeruginosa NCTC 13437 (P. aeruginosa NCTC 13437 (R), shown in µM); 64.7 µM in the series with P. aeruginosa PAO1; 1 µM in the series with A. baumannii ATCC 17978 (A. baumannii ATCC 17978 (S), shown in µM); 1 µM in the series on A. baumannii AYE (A. baumannii AYE (R), shown in µM). Also, the “Modal MIC” value with K. pneumoniae M6 (K. pneumoniae M6 (S), shown in µM) amounted to 4 µM; in the series on K. pneumoniae NCTC 13368 (K. pneumoniae NCTC 13368 (R), shown in µM), 8.1 µM; in the series with S. aureus (MRSA) 1199B, 2 µM; in [1] (S. aureus (MRSA) NCTC 13616 (R), shown in µM), 2 µM; in the series with S. aureus (MRSA) USA300 (S. aureus (MRSA) USA300 (R), shown in µM), 4 µM; in series [2] (S. aureus (MSSA) ATCC 9144 (S), shown in µM) it was 1 µM. In addition, the “Modal MIC50” value in the series on C. auris TDG 1912 (C. auris TDG 1912, 50% growth inhibition, RPMI 1640 + 2% glucose, 37 °C, 20 h, OD600) is > 128 µg/mL; with C. auris TDG 1912 (C. auris TDG 1912, shown in µM), > 64.7 µM; in the series on C. albicans NCPF 3281 (setting [4]), 32.4 µM; with C. glabrata NCPF 8018 (setting [5]) it was 64.7 µM; with C. krusei NCPF 3876 (setting [6]) it was 16.2 µM; in [3] (setting [7]), 32.4 µM. For the same molecule, the “Modal MIC50” value with C. tropicalis NCPF 8760 (setting [8]) is on record as 4 µM. Also, the “Modal MIC90” value with C. auris TDG 1912 (C. auris TDG 1912, 90% growth inhibition, RPMI 1640 + 2% glucose, 37 °C, 20 h, OD600) is listed as > 128 µg/mL; in the series on C. auris TDG 1912 (C. auris TDG 1912, shown in µM), > 64.7 µM; in the series with C. albicans NCPF 3281 (setting [4]), 64.7 µM; in the series on C. glabrata NCPF 8018 (setting [5]) it was 64.7 µM; in the series on C. krusei NCPF 3876 (setting [6]), 16.2 µM; in series [3] (setting [7]), 64.7 µM. In addition, the “Modal MIC90” value in the series on C. tropicalis NCPF 8760 (setting [8]) is on record as 4 µM. Also, in the series on human erythrocytes, the “HC10 (concentration causing 10% hemolysis)” value is reported as 155 µg/mL. Besides, the “HC50 (concentration causing 50% hemolysis)” value in the series with human erythrocytes is on record as > 256 µg/mL.
